Test system: T1, PLZ1.4 (PhotoLanZyme 1.4)
T1 construct: de novo design; single-chain fusion of two TFD subunits via one Gly; active-site W6 and W175 removed, two active-site mutations, eight surface mutations (6x D to N, 2x E to Q); loaded with CeCl3
Test: Michaelis-Menten kinetics of photocatalytic diol cleavage
Type: biochemical, synthetic construct
Details: CeCl3-loaded enzyme, visible light, aerobic, aqueous buffer

Row | Km | Km ((R,R) isomer per Figure 2F) | SMILES
1 | 5.5 ± 1 mM |  | OCC(Oc1ccccc1)C(O)c1ccccc1 (centres unmarked) [compound 24, lignin surrogate 24]
2 |  | 2.9 ± 0.4 mM | O[C@H](c1ccccc1)[C@H](O)c1ccccc1 [(R,R)-1]

From PMC11440500, “A De Novo Metalloenzyme for Cerium Photoredox Catalysis” (Journal of the American Chemical Society, 2024)
